Assay results: article PMC7870626, “Neurotoxicity and underlying cellular changes of 21 mitochondrial respiratory chain inhibitors” (Archives of Toxicology, 2021)
Like-named read-outs stand apart in the source and are kept apart here.

Tests used:
[1] = system: SH-SY5Y cells; assay: Mitochondrial membrane potential (rhodamine 123), KE2 assay; format: cell-based, human; conditions: for EC25: Homo sapiens, SH-SY5Y differentiated 6 days, treated 24 h, rhodamine-123, read-out: pEC25 MMP (concentration where MMP was reduced by 25%) (converted); for Ratios of EC25 KE4/KE2 MMP: NeuriTox neurite EC25 relative to SH-SY5Y MMP EC25
[2] = system: proteasome; assay: Proteasomal activity (KE3 assay) in LUHMES cells; format: cell-based, human; conditions: NeuriTox neurite EC25 relative to proteasomal activity EC25, LUHMES
Experimental: Activity of the proteasome was quantified as described in (Gutbier et al. [2018b]). Briefly, after exposure, culture medium was replaced by assay buffer containing a cell-permeable proteasomal substrate (MeOSuc-Gly-Leu-Phe-AMC, 25 µM (Bachem, Bubendorf, Switzerland) in HBSS). Its AMC-fluorescence (ex: 360 nm, em: 465 nm) increases with proteasomal activity and was monitored for 90 min. Background-corrected data were used for further analysis.

[3] = system: MRC complex (cI, cII or cIII); assay: HepG2-based MRC complex assay in permeabilized cells (earlier study); format: cell-based; conditions: NeuriTox neurite EC25 relative to complex assay EC25 in permeabilized cells; respirometric data from HepG2-based assays ref van der Stel et al. 2020
[4] = system: LUHMES cells; format: cell-based, human; conditions: for log2FoldChange AARS: gene AARS; for log2FoldChange AARS / log2FoldChange AASDHPPT / log2FoldChange AATF / log2FoldChange ABCA1 / log2FoldChange ABCA6: vs 0.1% DMSO; for log2FoldChange AASDHPPT: gene AASDHPPT; for log2FoldChange AATF: gene AATF; for log2FoldChange ABCA1: gene ABCA1; for log2FoldChange ABCA6: gene ABCA6
Experimental: Cells were cultured and treated as described above for the NeuriTox assay. On d3, after 24 h treatment, culture medium was replaced by 33 µl/well 1 × Biospyder lysis buffer. After 15 min at room temperature, plates were sealed and frozen at -80 °C to complete lysis. Samples were analyzed at Bioclavis (Glasgow) using the TempO-Seq technique and the EU-ToxRisk v2.0 gene probe panel covering ca. 3000 genes (Yeakley et al. [2017]). All genes are listed in the supplementary excel file (containing also all gene regulations). Briefly, a 50 bp fragment of the target gene was amplified. The amplification step also introduced sample-specific barcodes. This allowed pooling of all samples and standard next-generation sequencing of the ensemble. Afterward, adapters were used to allocate the sequenced fragments to the correct samples. Finally, the alignment of all sequenced fragments (FASTQ files) for each sample to the collection of reference 50 bp oligonucleotides was performed for the quantification of reads per gene, also known as the read count values. In a pre-filtering step, samples with a total count < 0.2 million and genes with an average count < 1.5 were removed.
To correct for both read depth and RNA composition, the DESeq2′s median of ratios normalization was applied. The analysis of differentially expressed genes (DEG) of each treatment against the control group was done by the Wald test implemented in DESeq2/R (Love et al. [2014]), including an FDR correction for p-adjusted ≤ 0.05. […] A curve was fit through these concentration–response data to obtain EC10DEG. For comparability, all DEG data were normalized to a positive control. […] The EC10DEG was calculated using an established online open access BMC calculator (BMCeasy) (Krebs et al. [2020]).

[5] = system: LUHMES cells; assay: Intracellular ATP content after NeuriTox exposure; format: cell-based; conditions: Homo sapiens; NeuriTox exposure scheme, 24 h; read-out: LUHMES 24 h EC25 ATP (converted)
Summary of the method: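 LUHMES cells differentiated 48 h were re-seeded without cAMP/GDNF and exposed for 24 h starting 1 h after seeding; in the 120 h scenario, cells were dosed on d5 and d7 with read-out on d10. After imaging, intracellular ATP measured by CellTiterGlo 2.0 luminescence, background-corrected.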

[6] = system: U2OS cells; assay: cells; format: cell-based; conditions: Homo sapiens; U2OS osteosarcoma cells, 24 h, luminescence of constitutively expressed luciferase; read-out: Cytotox EC25 U2OS (converted)
Summary of the method: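 Cytotox CALUX U2OS cells, constitutively expressing luciferase, dosed with a compound dilution series 24 h after seeding and exposed 24 h. Luminescence after lysis reflects live-cell number; scaled between vehicle (100%) and 100 µM tributyltin acetate (0%).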

[7] = system: HepG2 cells; assay: HepG2-based respirometry, total cell respiration (earlier study); conditions: NeuriTox neurite EC25 relative to cell respiration EC25; respirometric data from HepG2-based assays ref van der Stel et al. 2020

| Structure (SMILES) | EC25 [1] | Ratios of EC25 KE4/KE3 proteasomal [2] | Ratios of EC25 KE4/KE1 complex assay [3] | EC25 [5] | EC25 [6] | Ratios of EC25 KE4/KE1 total respiration [7] | Ratios of EC25 KE4/KE2 MMP [1] | other results |
| --- | --- | --- | --- | --- | --- | --- | --- | --- |
| Cc1nc(C(F)(F)F)c(C(=O)Nc2c(Br)cc(OC(F)(F)F)cc2Br)s1 [Thifluzamide] | > 10 µM | 1.1 | 2.5 | 20 µM | 20 µM | < 2 | – | log2FoldChange AARS ([4]; 0.15 µM, 24 h): -0.98 log2; log2FoldChange AASDHPPT ([4]; 0.15 µM, 24 h): 0.89 log2; log2FoldChange AATF ([4]; 0.15 µM, 24 h): -0.41 log2; log2FoldChange ABCA1 ([4]; 0.15 µM, 24 h): -0.76 log2; log2FoldChange ABCA6 ([4]; 0.15 µM, 24 h): 1.03 log2 |
| COc1cc2c(cc1OC)[C@@H]1C(=O)c3ccc4c(c3O[C@@H]1CO2)C=CC(C)(C)O4 [Deguelin] | 0.316 µM | 0.7 | 250 | 10 µM | > 50.1 µM | 32 | 13 | Number of DEGs triggered ([4]; 13 µM, 24 h, LUHMES): 325; Regulation of the 13 deguelin-sensitive genes (in words) ([4]; LUHMES 24 h): 11 out of 13 of these genes were not significantly regulated up to 0.8 µM deguelin, but clearly upregulated at 3.25 µM; log2FoldChange AARS ([4]; 0.05 µM, 24 h): -0.69 log2; log2FoldChange AASDHPPT ([4]; 0.05 µM, 24 h): 0.63 log2; log2FoldChange AATF ([4]; 0.05 µM, 24 h): -0.08 log2; log2FoldChange ABCA1 ([4]; 0.05 µM, 24 h): -2.12 log2; log2FoldChange ABCA6 ([4]; 0.05 µM, 24 h): 0.47 log2 |
| COC(=O)N(OC)c1ccccc1COc1ccn(-c2ccc(Cl)cc2)n1 [Pyraclostrobin] | 0.316 µM | 0.7 | 400 | 12.6 µM | > 100 µM | 100 | 85 | log2FoldChange AARS ([4]; 0.0856 µM, 24 h): -0.28 log2; log2FoldChange AASDHPPT ([4]; 0.0856 µM, 24 h): 0.80 log2; log2FoldChange AATF ([4]; 0.0856 µM, 24 h): -0.24 log2; log2FoldChange ABCA1 ([4]; 0.0856 µM, 24 h): -1.33 log2; log2FoldChange ABCA6 ([4]; 0.0856 µM, 24 h): 0.89 log2 |
